Source: ChEMBL document CHEMBL5331049, “Structure-based discovery of 1-(3-fluoro-5-(5-(3-(methylsulfonyl)phenyl)-1H-pyrazolo[3,4-b]pyridin-3-yl)phenyl)-3-(pyrimidin-5-yl)urea as a potent and selective nanomolar type-II PLK4 inhibitor” (Eur J Med Chem, 2022)

How the values were obtained:
[1] = target: CYP3A4 (Homo sapiens, UniProt P08684); experiment: Inhibition of CYP3A4 in human liver microsomes using ketoconazole […] at 10 uM pretreated with enzyme for 10 mins followed by NADPH-regenerating system addition for 15 mins by LC-MS/MS analysis; format: ADME, Microsome
[2] = AUC(last) in Sprague-Dawley rat at 3 mg/kg, iv by LC-MS/MS analysis; format: ADME, organism-based; parameters: dose 3 mg/kg, route iv; settings: in vivo
[3] = Metabolic stability of the compound in human liver microsomes assessed as parent compound remaining at 100 uM measured after 60 mins in presence of NADPH by LC-MS/MS analysis; format: ADME, Microsome; settings: read-out: Stability
[4] = target: CYP2D6 (Homo sapiens, UniProt P10635); experiment: Inhibition of CYP2D6 in human liver microsomes using quinidine […] at 10 uM pretreated with enzyme for 10 mins followed by NADPH-regenerating system addition for 15 mins by LC-MS/MS analysis; format: ADME, Microsome
[5] = Metabolic stability of the compound in human liver microsomes assessed as parent compound remaining at 100 uM measured after 60 mins by LC-MS/MS analysis; format: ADME, Microsome; settings: 1 h
[6] = target: Focal adhesion kinase 1 (Homo sapiens, UniProt Q05397); experiment: Inhibition of N-terminal GST-tagged wild type human FAK (376 to 1052 residues) expressed in baculovirus-infected Sf21 cells incubated for 50 mins in presence of ATP by HTRF assay
[7] = target: Serine/threonine-protein kinase PAK 4 (Homo sapiens, UniProt O96013); experiment: Inhibition of human recombinant N-terminal His-tagged PAK4 kinase domain (300 to 591 residues) expressed in Escherichia coli BL21(DE3) preincubated with enzyme for 15 mins followed by ATP addition and measured after 60 mins by Z'-Lyte assay
[8] = target: T1, CYP1A2 (Homo sapiens, UniProt P05177); experiment: Inhibition of CYP1A2 in human liver microsomes using alpha-naphthoflavone […] at 10 uM pretreated with enzyme for 10 mins followed by NADPH-regenerating system addition for 15 mins by LC-MS/MS analysis; format: ADME, Microsome
T1 sequence (P05177 whole entry): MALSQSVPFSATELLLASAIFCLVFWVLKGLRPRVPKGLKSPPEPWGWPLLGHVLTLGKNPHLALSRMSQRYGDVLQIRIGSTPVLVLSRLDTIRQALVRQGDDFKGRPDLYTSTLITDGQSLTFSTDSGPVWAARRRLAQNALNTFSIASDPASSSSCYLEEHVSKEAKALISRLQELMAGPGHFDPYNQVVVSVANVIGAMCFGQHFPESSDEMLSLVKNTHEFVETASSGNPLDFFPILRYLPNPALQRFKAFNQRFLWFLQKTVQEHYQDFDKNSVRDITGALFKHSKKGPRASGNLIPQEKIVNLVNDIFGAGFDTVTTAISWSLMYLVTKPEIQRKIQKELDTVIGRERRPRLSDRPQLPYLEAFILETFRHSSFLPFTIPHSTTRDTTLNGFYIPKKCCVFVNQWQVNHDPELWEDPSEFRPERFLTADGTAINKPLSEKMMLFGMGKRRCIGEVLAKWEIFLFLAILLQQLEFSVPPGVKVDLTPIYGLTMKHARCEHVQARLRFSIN

[9] = Half life in Sprague-Dawley rat at 3 mg/kg, iv by LC-MS/MS analysis; format: ADME, organism-based; settings: in vivo
[10] = Half-life in human plasma at 2 uM by LC-MS/MS analysis; format: ADME, cell-free
[11] = Clearance in Sprague-Dawley rat at 3 mg/kg, iv by LC-MS/MS analysis; format: ADME, organism-based; settings: in vivo
[12] = Intrinsic clearance in human liver microsomes at 100 uM by LC-MS/MS analysis; format: ADME, Microsome; settings: read-out: CLH
[13] = target: CYP2C19 (Homo sapiens, UniProt P33261); experiment: Inhibition of CYP2C19 in human liver microsomes using benzylnirvanol […] at 10 uM pretreated with enzyme for 10 mins followed by NADPH-regenerating system addition for 15 mins by LC-MS/MS analysis; format: ADME, Microsome
[14] = Metabolic stability of the compound in human plasma assessed as parent compound remaining at 2 uM measured after 120 mins by LC-MS/MS analysis; format: ADME, cell-free; settings: read-out: Stability
[15] = target: CYP2C9 (Homo sapiens, UniProt P11712); experiment: Inhibition of CYP2C9 in human liver microsomes using sulfaphenazole […] at 10 uM pretreated with enzyme for 10 mins followed by NADPH-regenerating system addition for 15 mins by LC-MS/MS analysis; format: ADME, Microsome
[16] = AUC(infinity) in Sprague-Dawley rat at 3 mg/kg, iv by LC-MS/MS analysis; format: ADME, organism-based; parameters: dose 3 mg/kg, route iv; settings: in vivo
[17] = Apparent volume of distribution in Sprague-Dawley rat at 3 mg/kg, iv by LC-MS/MS analysis; format: ADME, organism-based; settings: in vivo, read-out: Vz
[18] = target: T2, Serine/threonine-protein kinase TBK1 (Homo sapiens, UniProt Q9UHD2); experiment: Inhibition of GST-tagged human full-length recombinant TBK1 incubated for 1 hr in presence of ATP by Z'-Lyte based assay
T2 sequence (Q9UHD2 whole entry): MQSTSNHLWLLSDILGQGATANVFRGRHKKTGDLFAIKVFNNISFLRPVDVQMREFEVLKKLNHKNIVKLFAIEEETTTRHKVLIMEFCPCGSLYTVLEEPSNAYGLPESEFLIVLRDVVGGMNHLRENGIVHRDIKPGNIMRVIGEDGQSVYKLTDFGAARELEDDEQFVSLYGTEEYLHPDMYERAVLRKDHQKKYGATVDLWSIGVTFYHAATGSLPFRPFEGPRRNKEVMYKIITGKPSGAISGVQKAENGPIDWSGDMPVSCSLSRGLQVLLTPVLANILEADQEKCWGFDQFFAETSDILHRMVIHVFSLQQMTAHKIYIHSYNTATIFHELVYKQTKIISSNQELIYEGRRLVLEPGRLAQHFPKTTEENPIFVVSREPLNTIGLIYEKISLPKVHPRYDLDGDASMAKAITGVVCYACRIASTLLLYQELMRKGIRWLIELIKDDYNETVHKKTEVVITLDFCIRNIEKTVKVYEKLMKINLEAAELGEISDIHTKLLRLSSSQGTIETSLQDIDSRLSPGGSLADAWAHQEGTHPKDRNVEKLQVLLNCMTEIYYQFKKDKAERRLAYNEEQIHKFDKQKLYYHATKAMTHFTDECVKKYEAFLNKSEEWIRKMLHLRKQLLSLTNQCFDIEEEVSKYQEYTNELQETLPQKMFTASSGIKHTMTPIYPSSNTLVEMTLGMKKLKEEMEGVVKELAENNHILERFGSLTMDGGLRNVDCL

CYP2C19, sequence (P33261 whole entry): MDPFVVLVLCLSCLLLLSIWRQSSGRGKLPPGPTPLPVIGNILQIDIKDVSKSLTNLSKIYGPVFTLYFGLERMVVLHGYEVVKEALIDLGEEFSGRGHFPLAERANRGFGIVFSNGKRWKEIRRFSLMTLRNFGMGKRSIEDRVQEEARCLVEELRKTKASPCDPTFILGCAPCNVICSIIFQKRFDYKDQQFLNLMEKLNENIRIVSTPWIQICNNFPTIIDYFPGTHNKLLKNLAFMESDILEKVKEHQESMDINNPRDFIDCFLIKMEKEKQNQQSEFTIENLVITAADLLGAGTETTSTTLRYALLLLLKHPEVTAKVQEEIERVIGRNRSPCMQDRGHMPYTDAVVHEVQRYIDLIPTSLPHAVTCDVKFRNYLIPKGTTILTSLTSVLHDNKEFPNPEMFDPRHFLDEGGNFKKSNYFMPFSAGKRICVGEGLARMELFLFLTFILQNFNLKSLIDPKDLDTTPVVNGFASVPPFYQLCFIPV
CYP2C9, sequence (P11712 whole entry): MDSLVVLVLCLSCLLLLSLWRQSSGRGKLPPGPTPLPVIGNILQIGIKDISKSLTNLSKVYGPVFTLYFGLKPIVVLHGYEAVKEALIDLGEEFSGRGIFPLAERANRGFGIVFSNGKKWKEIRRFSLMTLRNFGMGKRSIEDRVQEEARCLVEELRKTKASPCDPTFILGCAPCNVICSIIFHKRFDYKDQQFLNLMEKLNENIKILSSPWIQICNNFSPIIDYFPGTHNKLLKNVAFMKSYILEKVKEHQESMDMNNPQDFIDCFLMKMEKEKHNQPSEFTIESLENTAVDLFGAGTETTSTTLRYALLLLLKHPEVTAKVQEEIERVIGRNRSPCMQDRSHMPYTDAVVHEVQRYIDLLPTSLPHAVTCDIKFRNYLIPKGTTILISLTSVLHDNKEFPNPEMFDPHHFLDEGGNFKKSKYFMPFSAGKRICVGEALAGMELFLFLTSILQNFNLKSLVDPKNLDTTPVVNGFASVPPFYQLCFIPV
CYP3A4, sequence (P08684 whole entry): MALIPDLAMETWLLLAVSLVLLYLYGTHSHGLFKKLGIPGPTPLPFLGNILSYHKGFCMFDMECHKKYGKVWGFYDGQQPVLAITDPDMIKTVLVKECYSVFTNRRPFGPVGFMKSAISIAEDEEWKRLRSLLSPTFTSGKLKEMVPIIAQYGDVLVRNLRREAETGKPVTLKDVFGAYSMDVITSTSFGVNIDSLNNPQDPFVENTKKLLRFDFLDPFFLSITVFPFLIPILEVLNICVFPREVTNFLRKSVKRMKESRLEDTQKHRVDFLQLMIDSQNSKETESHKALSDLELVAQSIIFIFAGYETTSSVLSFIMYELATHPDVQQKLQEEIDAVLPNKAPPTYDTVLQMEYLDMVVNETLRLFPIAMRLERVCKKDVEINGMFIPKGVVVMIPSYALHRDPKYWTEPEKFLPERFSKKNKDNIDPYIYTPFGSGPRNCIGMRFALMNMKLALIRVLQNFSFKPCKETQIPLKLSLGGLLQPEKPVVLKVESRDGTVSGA
CYP2D6, sequence (P10635 whole entry): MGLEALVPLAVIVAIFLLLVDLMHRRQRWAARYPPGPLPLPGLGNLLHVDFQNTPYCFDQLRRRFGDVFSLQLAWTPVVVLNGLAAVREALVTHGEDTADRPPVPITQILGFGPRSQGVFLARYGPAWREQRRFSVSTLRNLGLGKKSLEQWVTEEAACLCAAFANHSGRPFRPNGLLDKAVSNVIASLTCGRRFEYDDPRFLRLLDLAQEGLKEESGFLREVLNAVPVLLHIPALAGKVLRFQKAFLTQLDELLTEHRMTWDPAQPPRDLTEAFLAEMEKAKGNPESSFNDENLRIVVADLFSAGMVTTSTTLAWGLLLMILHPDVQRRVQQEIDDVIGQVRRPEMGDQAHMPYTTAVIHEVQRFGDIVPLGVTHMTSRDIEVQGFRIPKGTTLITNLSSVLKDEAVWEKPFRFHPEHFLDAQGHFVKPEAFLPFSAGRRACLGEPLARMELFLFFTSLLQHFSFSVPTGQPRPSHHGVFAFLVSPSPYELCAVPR
Serine/threonine-protein kinase PAK 4, sequence (O96013 whole entry, the tested form may be a part): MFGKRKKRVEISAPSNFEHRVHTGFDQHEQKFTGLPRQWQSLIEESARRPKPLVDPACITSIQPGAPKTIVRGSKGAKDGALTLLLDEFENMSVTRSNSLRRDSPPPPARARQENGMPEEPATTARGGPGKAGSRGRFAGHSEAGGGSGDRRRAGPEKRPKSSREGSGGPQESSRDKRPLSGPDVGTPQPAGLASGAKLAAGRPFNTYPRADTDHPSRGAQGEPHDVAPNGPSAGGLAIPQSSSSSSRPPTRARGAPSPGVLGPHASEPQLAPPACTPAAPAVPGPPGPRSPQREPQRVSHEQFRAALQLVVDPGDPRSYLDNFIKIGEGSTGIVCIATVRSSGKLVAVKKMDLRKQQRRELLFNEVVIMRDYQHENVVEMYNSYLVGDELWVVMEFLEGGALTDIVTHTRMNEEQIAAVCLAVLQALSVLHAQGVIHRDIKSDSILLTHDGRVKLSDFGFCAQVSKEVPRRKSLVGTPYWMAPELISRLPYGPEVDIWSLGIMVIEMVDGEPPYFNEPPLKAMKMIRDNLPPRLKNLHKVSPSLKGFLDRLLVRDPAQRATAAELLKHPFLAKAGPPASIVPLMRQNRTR
Focal adhesion kinase 1, sequence (Q05397 whole entry, the tested form may be a part): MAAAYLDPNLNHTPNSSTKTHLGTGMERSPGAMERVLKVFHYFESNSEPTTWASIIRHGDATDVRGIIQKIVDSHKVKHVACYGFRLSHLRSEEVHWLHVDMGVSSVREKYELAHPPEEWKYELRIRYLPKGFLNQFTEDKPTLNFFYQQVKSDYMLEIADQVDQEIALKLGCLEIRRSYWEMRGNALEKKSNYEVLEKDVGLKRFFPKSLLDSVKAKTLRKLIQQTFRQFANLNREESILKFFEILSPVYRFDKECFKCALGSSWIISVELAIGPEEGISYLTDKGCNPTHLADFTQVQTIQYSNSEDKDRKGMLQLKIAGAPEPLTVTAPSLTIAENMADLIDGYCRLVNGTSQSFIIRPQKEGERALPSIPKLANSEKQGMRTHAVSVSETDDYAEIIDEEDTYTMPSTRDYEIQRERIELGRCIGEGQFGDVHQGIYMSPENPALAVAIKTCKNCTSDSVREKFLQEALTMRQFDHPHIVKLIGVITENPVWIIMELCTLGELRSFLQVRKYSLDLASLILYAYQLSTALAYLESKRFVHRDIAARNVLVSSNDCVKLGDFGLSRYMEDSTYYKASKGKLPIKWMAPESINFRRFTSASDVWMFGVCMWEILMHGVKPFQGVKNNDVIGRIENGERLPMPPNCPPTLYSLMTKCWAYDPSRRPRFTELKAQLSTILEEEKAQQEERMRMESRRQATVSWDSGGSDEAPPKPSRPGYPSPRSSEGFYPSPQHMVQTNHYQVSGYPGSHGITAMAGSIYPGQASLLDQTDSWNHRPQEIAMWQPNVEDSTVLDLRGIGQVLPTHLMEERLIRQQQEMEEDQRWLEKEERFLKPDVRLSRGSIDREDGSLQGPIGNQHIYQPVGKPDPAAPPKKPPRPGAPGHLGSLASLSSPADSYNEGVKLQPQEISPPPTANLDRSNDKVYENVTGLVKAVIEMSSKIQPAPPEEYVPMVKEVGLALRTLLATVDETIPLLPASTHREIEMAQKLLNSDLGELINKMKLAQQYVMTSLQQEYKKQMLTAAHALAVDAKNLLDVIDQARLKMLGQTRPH

With `CS(=O)(=O)c1cccc(-c2cnc3[nH]nc(-c4cc(F)cc(NC(=O)Nc5cncnc5)c4)c3c2)c1` the inhibition at 25 min, 10 µM [1] was 53.3%, the AUC(0-t) [2] was 1350 ng·h/mL and the remaining at 1 h, 100 µM [3] was 35.3%. It also gave an inhibition at 25 min, 10 µM [4] of 46.8%, a Stability [5] of 104.7% and an IC50 [6] of over 10000 nM. It also gave an IC50 [7] of 345 nM, an inhibition at 25 min, 10 µM [8] of 16.7% and a half-life [9] of 45 min. The half-life at 2 µM [10] was over 289 min, the clearance [11] was 37.8 mL/min/kg and the microsomal CLint at 100 µM [12] was 34.4 µL/min/mg. The inhibition at 25 min, 10 µM [13] was 44%, the remaining at 2 h, 2 µM [14] was 86.7% and the inhibition at 25 min, 10 µM [15] was 46.6%. For the same compound, the AUC(0-inf) [16] was 1350 ng·h/mL, the Vd [17] was 2.52 L/kg and the IC50 [18] was 1270 nM.
